From paper PMC7821884, “BRAF inhibition protects against hearing loss in mice” (Science Advances, 2020) come the findings set out here.

Each structure is given as a SMILES string.

Experiment [1] has as its system P42 FVB mice. As to the kind of experiment: Cisplatin-induced hearing loss in adult mice (ABR, OHC counts, pERK). Particulars: 75 mg/kg oral gavage, cisplatin 30 mg/kg i.p. How it is done: As described in Fig. 4A, baseline auditory brainstem response (ABR) thresholds for P42 FVB mice were established 1 week before experimental procedures. […] Animals were allowed 21 days after cisplatin injection to recover, and final ABR thresholds were recorded.
Ten milligrams of cisplatin (479306, Sigma-Aldrich) powder was dissolved in 10 ml of sterile saline (0.9% NaCl) at 37°C for 40 to 60 min. Cisplatin was administered to FVB mice at 30 mg/kg via intraperitoneal injection. One day before cisplatin injection, mice received 1 ml of saline by subcutaneous injection. To ameliorate dehydration after cisplatin injection, 1 ml of warm saline was injected twice per day for at least 7 days or until body weight started to recover. The cages of cisplatin-treated mice were placed on the heating pad for at least 7 days or until body weight began to recover. Fresh mush food was daily given for at least 7 days.
(§1) Compounds were dissolved in a mixture of 10% DMSO, 5% Tween 80 (P1754, Sigma-Aldrich), 40% PEG-E-300 (91462-1KG, Sigma-Aldrich), and 45% 0.9% saline.
(§2) ABR in mice was measured for left ears as described previously with minor modifications ([13], [34]). In brief, ABR waveforms were recorded in a sound booth (Industrial Acoustic Company) by using subdermal needles positioned in the skull, below the pinna, and at the base of the tail, and the responses were fed into a low-impedance Medusa digital biological amplifier system (RA4L; TDT; 20-dB gain). At each frequency, the stimulus intensity was reduced from 90 to 0 dB in 10-dB steps to determine the threshold decibel SPL when the electrical response was just above the noise floor. ABR waveforms were averaged in response to 500 tone bursts. The recorded signals were filtered by a band-pass filter from 300 Hz to 3 kHz. Pretreatment ABR recordings of adult FVB mice (aged 6 weeks) were acquired 1 week before all treatments, and posttreatment ABR measurements were recorded 21 days after cisplatin treatment or 14 days after noise exposure. ABR threshold was determined by the presence of any of three or more of the five waveform peaks. […] All thresholds and shifts were determined independently by two experimenters for each mouse. Individual ABR wave 1 amplitudes were measured as the difference between the positive peak and the following negative trough.
Cochleae from adult mice were prepared and examined as described previously ([85], [86]). All images were acquired with a confocal microscope (LSM 700 or 710, Zeiss). Samples were stained with phalloidin (A12379 or A12380, Invitrogen) or with antibodies for other markers. The following primary antibodies were used: anti–myosin VI (1:400; 25-6791; Proteus Bioscience), anti–myosin VIIa ([…];138-1-s, Developmental Studies Hybridoma Bank), anti-Tuj1 (1:250; 801201, BioLegend), anti-pERK (1:400; 9101S, Cell Signaling Technology), or anti-Ctbp2 (1:500; 612044, BD Transduction). Anti-rabbit Alexa Fluor 488 (1:400; A11034) and anti-mouse Alexa Fluor 647 (1:400; A31571) secondary antibodies were purchased from Invitrogen. ProLong gold antifade reagent with 4′,6-diamidino-2-phenylindole (P36941, Invitrogen) was used to counterstain nuclei.

For the next experiment, the system named is SK-N-AS. As to the kind of experiment: Tumor Cell Titer-Glo viability assay, SK-N-AS. Particulars: SKN-AS, + 15 μM cisplatin, 48 hours. Type of experiment: cell-based, human. The source says:
(§3) In clinical settings, cisplatin is used to treat several tumor types, including neuroblastoma and lung carcinoma. […] Medium-alone–, cisplatin-alone–, and dabrafenib-alone–treated cells were used as controls, and viability was reported as percent survival compared to medium alone (Fig. 4E).
(§4) Three human neuroblastoma cell lines IMR-32, SH-SY5Y, and, SK-N-AS, as well as three human lung carcinoma cell lines SHP-77 small cell, H1155 non–small cell, and A549 non–small cell, were used to determine the compounds’ effect on cisplatin’s tumor-killing efficacy ([77]–[83]). Cell lines were purchased from the American Type Culture Collection (ATCC), and cell culture was conducted according to ATCC specifications. Neuroblastoma cell lines IMR-32 and SH-SY5Y are maintained in Dulbecco’s modified Eagle’s medium (DMEM) 1× with glucose (4.5 g/liter), L-glutamine, and sodium pyruvate (10-013-CV, Corning) with 10% fetal bovine serum (FBS) (35011132, Corning) and ampicillin (50 μg/ml; A5354-10ML, Sigma-Aldrich) added. The SK-N-AS cell line is maintained in DMEM 1× with D-glucose (4.5 g/liter), L-glutamine, and 25 mM Hepes (12430-054, Gibco) with 10% FBS, 0.1 mM nonessential amino acids, and ampicillin (50 μg/ml) added. A549 cells are maintained in F-12K medium with L-glutamine (30-2004, ATCC) with 10% FBS and ampicillin (50 μg/ml) added. […]

Experiment [2] deals with Tg(brn3c:GFP) zebrafish larvae neuromast HCs. As to the kind of experiment: Zebrafish lateral line neuromast hair cell loss after cisplatin. The note with it: 1 hour pretreatment, 6 hours 400 μM cisplatin; dabrafenib 100 nM. Type of experiment: in vivo. The source says: Lateral line neuromasts of zebrafish are a well-established model for the study of drug protection from cisplatin or aminoglycoside toxicity because their HCs are considered homologous to mammalian HCs and readily accessible to compounds in vivo ([47]–[49]). As in our previous studies, MI1 (medial neuromast 1) and O1-2 (otic line) neuromasts were examined in Tg(brn3c:GFP) zebrafish larvae 5 days after fertilization ([50], [51]). […] Green fluorescent protein (GFP) (brn3c) and otoferlin staining were used to identify neuromast HCs. In fig.
Zebrafish (D. rerio) experimental larvae of either sex were obtained by pair mating of adult fish maintained at Boys Town National Research Hospital. We used zebrafish line Tg(brn3c:GFP) that expresses a membrane-bound GFP in HCs. Fish were maintained at 28.5°C in E3 media [5 mM NaCl, 0.17 mM KCl, 0.33 mM CaCl2, and 0.33 MgSO4 (pH 7.2)] at a density of 50 embryos/larvae per […] petri dish. Experimental animals were used at 5 days post-fertilization and cryo-anesthetized after treatment and before fixation. Average HC counts in our studies were obtained from the following three neuromasts: MI1 (medial neuromast 1) and O1 and O2 (otic line).

In experiment [3] the test system is human neuroblastoma and lung carcinoma cell lines. As to the kind of experiment: Tumor Cell Titer-Glo viability assay, interference with cisplatin tumor killing (six cell lines). Particulars: compound at 3× protective IC50 (dabrafenib 35 μM, AZD5438 […]) + 15 μM cisplatin (200 μM for A549), 48 hours. Type of experiment: cell-based.
Description: as §3, §4
(In ATP-based viability assays light output follows the ATP content of the culture.)

For experiment [4], the system named is P42 FVB mice. As to the kind of experiment: Noise-induced hearing loss in adult mice (ABR, DPOAE, Ctbp2 puncta, pERK). Type of experiment: in vivo, mouse. On the procedure:
Noise injury cannot always be predicted, and pretreatment is often not an option.
as §1, §2
Mice were placed in individual cages in a custom-made acrylic chamber. The sound stimulus was produced by System RZ6 (TDT) equipment and amplified using a 75-A power amplifier (Crown). Sound was delivered to the acrylic chamber via a speaker horn (JBL). The SPL was calibrated with a 1/4-inch free-field microphone (PCB). Before experimental noise exposure, four quadrants of the cage inside the chamber were sampled with the 1/4-inch microphone to ensure that the SPL varied by <0.5 dB across the measured positions. Adult mice were then exposed to 2 hours of octave band noise (8 to 16 kHz) at 100 dB.
Organs of Corti were costained with anti-Ctbp2 and anti–myosin VI antibodies. Confocal imaging was performed using a Zeiss 700 scanning confocal microscope with a 63× objective. Visualization and projections were performed using ZEN 2009 or ZEN 2012 software (Zeiss). Ctbp2 puncta were visualized and counted on the reconstructed three-dimensional images by using the ZEN 2009 or ZEN 2012 three-dimensional construct function as previously reported ([54]). […] Images were acquired around 16-kHz cochlear regions, and each image included 12 to 18 IHCs that were quantified as total number of Ctbp2 puncta divided by total number of IHCs per image.

For `Cc1ncc(-c2ccnc(Nc3ccc(S(C)(=O)=O)cc3)n2)n1C(C)C` [AZD5438], in the experiment on P42 FVB mice [1], the “protection against cisplatin-induced hearing loss, pretreatment” value is “protected”. Further, in the experiment with SK-N-AS, the “interference with cisplatin killing ability” value is recorded as “interfered with cisplatin killing ability”. Besides, in experiment [2], the “protection from cisplatin-induced neuromast HC loss” value was “confer protection”. For the same compound, the “effect on cisplatin-induced tumor cell death” value in experiment [3] is “did not interfere with or enhanced”. Moreover, in the experiment on P42 FVB mice [4] (35 mg/kg twice daily oral gavage, post-noise), the “reduction of ABR threshold shifts, treatment after noise” value is reported as “did not significantly reduce”. Also, the “protection against noise-induced hearing loss, pretreatment” value in the experiment on P42 FVB mice [4] (75 mg/kg oral gavage pretreatment) is “protected”.
